{"source": "patent US7851444B2", "about": "(priority 2002, dated 2010)", "system": "CCI rat", "conditions": "in vivo"}
{"smiles": "CN1CC[C@]23c4c5ccc(O)c4O[C@H]2[C@@H](O)C=C[C@H]3[C@H]1C5", "note": "[morphine]", "values": [{"measurement": "antinociceptive effects in a rat model of neuropathic pain", "result": "produced antinociceptive effects"}, {"measurement": "duration of antinociceptive effects", "result": 3, "unit": "h"}, {"measurement": "selectivity of antinociceptive effects between paws", "result": "selective for the ipsilateral over the contralateral paw"}]}
